Results from article PMC6624251, “Isoform-specific Inhibition of N-methyl-D-aspartate Receptors by Bile Salts” (Scientific Reports, 2019).
Read-outs that look alike come from different tables or passages of the source. Values belong to the compound of their own block, whether it stands above or below them.

Key:
kainate receptor GluK2 = kainate receptor GluK2 (Rattus norvegicus, UniProt P42260); assay: Two-electrode voltage clamp of kainate receptor in Xenopus laevis oocytes; format: cell-based; conditions: 100 µM CDC; after block of desensitization with ConA; n = 3
Description: (§1) The resulting EC50 or IC50 values were averaged.

[1] = biological target: AMPA receptor GluA1/GluA2 (Rattus norvegicus, UniProt P19490+P19491); assay: Two-electrode voltage clamp of AMPA receptor in Xenopus laevis oocytes; format: cell-based; conditions: 100 µM CDC; n = 6
Description: as §1

GluN3B Ser701 to Ala = GluN3B Ser701 to Ala (Mus musculus, UniProt Q91ZU9, S701A); assay: Two-electrode voltage clamp of GluN3B point mutant Ser701 to Ala in oocytes; format: cell-based; conditions: for Increase in block for the mutant compared with wild type: 100 µM bile salt, n = 11–13
Description: as §1

GluN1/GluN2D receptors = GluN1/GluN2D receptors (Rattus norvegicus, UniProt P35439+Q62645); assay: Two-electrode voltage clamp of recombinant NMDARs in Xenopus laevis oocytes (GluN2D); conditions: for IC50: read-out: IC50 Tauro-CDC
GluN3B Tyr505 to Ala = GluN3B Tyr505 to Ala (Mus musculus, UniProt Q91ZU9, Y505A); conditions: n = 9
GluN1/GluN3B receptors = GluN1/GluN3B receptors (Mus musculus, UniProt Q91ZU9); assay: Two-electrode voltage clamp of recombinant NMDARs in Xenopus laevis oocytes (GluN3B); conditions: for maximum block by tauro-CDC / IC50: n = 6; for IC50: read-out: mean IC50 for tauro-CDC
NMDAR = test system: NMDAR; set-up: method as in PMID 1372086; conditions: read-out: reported EC50; cited from earlier work
uninjected oocytes = assay: Agonist application to uninjected oocytes; format: cell-based, Xenopus laevis; conditions: n = 3
Description: as §1

GluN1/GluN3B receptors, sequence (Q91ZU9 25-1003, other chains not shown): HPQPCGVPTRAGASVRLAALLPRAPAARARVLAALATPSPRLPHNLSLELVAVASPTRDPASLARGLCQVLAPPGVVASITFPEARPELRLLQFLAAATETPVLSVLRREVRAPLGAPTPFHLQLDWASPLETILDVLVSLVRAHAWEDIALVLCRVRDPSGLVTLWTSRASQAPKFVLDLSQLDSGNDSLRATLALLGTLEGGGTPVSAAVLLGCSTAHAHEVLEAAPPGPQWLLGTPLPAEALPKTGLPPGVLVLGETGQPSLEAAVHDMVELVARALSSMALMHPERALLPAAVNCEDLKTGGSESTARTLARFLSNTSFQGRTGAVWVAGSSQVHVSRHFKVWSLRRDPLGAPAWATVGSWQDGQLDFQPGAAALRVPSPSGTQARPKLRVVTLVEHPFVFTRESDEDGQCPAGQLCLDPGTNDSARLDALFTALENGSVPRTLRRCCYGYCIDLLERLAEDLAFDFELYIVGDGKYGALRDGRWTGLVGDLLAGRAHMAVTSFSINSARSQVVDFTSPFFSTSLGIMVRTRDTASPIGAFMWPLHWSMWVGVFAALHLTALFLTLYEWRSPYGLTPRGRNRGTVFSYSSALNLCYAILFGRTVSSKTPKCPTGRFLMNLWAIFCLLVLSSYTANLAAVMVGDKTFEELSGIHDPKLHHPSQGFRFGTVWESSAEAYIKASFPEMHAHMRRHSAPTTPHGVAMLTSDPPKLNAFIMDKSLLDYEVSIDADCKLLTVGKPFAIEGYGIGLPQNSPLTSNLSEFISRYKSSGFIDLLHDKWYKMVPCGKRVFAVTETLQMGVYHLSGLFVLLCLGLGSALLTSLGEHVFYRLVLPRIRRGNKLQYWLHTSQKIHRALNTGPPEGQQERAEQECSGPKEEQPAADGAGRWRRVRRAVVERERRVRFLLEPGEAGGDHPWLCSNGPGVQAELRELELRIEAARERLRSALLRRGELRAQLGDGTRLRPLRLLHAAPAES
GluN1/GluN2D receptors, sequence (Q62645 28-1323, other chains not shown): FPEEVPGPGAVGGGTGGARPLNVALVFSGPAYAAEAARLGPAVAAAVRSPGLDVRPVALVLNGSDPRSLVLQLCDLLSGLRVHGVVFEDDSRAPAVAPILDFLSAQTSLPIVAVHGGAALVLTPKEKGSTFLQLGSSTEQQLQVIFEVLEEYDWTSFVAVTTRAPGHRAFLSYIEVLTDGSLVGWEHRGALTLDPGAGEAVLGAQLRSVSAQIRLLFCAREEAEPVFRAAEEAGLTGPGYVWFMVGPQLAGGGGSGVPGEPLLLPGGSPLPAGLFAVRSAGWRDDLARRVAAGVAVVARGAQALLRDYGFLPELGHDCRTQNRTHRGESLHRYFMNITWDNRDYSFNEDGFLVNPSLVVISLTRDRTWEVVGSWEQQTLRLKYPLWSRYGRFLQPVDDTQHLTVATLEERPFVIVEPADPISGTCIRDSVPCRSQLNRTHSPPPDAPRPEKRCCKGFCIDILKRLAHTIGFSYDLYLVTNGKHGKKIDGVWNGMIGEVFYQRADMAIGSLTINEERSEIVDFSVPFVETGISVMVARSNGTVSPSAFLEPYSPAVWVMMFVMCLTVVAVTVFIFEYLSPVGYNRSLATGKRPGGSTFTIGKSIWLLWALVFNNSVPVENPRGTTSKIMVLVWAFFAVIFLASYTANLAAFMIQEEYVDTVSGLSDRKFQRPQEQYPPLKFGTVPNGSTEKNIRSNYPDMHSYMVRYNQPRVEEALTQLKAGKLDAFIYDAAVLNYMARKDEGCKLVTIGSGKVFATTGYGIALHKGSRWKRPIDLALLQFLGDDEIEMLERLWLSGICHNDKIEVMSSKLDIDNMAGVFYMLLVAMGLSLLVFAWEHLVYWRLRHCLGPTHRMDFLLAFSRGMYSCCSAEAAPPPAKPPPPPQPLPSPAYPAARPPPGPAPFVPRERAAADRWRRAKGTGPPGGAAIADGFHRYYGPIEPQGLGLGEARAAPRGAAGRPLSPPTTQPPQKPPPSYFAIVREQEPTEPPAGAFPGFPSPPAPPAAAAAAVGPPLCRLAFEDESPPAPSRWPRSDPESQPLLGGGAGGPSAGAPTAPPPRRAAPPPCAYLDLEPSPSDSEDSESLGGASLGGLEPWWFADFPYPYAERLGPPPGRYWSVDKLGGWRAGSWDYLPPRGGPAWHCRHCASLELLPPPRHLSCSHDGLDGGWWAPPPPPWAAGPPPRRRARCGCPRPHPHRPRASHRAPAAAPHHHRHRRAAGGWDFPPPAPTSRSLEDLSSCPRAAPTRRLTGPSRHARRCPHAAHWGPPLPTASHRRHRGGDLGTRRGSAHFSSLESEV
GluN3B Ser701 to Ala, sequence (Q91ZU9 25-1003 S701A, other chains not shown): as the sequence (Q91ZU9 25-1003, other chains not shown) above, with S677A counted along it
AMPA receptor GluA1/GluA2, sequence (P19490 19-907): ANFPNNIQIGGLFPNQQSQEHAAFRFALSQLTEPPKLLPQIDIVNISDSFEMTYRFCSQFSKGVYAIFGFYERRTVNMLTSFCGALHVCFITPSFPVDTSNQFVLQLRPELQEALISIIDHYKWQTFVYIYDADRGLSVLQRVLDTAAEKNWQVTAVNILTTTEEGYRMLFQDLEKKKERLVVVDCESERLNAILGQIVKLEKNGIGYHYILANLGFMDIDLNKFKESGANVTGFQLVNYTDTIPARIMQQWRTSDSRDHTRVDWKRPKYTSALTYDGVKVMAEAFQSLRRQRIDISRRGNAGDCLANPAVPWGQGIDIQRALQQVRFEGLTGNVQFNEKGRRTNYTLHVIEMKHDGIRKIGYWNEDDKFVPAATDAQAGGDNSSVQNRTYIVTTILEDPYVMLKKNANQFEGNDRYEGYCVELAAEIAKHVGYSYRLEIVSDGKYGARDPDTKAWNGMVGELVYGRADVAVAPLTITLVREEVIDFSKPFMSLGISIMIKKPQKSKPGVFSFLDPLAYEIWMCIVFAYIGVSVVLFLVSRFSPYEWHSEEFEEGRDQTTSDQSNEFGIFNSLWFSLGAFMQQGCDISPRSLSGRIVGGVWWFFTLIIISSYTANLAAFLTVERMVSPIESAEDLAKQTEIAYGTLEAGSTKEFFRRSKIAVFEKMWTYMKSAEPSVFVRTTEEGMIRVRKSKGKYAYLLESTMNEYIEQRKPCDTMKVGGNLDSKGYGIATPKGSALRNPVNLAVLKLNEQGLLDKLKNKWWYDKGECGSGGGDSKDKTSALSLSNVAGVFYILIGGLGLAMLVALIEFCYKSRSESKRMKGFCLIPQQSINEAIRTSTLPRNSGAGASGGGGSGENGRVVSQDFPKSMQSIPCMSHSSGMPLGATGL
AMPA receptor GluA1/GluA2, sequence (P19491 22-883): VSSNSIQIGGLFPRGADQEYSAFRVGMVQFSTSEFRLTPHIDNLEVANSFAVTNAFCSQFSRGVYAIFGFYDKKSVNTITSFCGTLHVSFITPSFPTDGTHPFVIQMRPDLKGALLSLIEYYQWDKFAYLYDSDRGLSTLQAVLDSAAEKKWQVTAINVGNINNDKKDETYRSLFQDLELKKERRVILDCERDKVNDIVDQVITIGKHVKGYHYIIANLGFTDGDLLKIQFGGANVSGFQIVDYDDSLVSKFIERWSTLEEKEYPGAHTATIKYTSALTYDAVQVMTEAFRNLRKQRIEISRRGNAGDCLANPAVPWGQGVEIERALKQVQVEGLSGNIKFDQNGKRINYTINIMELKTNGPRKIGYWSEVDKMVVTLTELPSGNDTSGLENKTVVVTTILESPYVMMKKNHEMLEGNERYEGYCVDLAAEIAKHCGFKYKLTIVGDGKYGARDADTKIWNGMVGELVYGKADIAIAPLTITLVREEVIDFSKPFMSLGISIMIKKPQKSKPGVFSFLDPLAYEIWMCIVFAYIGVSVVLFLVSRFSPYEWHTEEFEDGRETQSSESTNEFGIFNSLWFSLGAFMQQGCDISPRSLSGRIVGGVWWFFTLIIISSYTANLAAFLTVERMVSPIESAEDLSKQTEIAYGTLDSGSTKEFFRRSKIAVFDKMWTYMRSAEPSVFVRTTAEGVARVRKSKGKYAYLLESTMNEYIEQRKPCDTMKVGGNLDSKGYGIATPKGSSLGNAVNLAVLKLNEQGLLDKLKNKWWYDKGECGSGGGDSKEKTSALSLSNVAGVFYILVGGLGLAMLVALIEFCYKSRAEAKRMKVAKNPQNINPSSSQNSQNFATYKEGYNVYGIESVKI
kainate receptor GluK2, sequence (P42260 32-908): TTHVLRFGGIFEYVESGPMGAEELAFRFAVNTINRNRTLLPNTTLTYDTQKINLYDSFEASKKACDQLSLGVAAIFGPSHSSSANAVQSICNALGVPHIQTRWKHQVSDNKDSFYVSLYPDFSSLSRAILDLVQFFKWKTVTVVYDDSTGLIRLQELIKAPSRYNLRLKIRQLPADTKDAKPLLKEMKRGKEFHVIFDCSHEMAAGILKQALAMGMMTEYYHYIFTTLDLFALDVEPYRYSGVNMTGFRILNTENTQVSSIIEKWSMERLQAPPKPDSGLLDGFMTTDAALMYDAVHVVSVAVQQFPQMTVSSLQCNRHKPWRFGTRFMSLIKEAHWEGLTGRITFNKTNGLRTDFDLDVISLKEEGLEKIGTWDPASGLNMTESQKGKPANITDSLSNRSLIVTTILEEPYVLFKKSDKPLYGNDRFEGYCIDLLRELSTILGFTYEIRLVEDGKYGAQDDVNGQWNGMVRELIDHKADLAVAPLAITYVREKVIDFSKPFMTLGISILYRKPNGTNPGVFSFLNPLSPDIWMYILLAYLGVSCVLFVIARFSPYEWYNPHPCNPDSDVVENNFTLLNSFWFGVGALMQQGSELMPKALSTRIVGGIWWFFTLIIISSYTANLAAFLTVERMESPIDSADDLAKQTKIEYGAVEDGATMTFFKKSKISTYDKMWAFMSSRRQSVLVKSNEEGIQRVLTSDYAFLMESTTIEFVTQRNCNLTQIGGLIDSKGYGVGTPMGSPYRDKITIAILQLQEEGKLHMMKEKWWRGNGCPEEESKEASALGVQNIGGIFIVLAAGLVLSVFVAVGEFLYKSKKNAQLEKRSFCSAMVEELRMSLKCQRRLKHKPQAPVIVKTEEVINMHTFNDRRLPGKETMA
GluN3B Tyr505 to Ala, sequence (Q91ZU9 25-1003 Y505A, other chains not shown): as the sequence (Q91ZU9 25-1003, other chains not shown) above, with Y481A counted along it

Reduction of GluA1/GluA2 currents [1]: 7 ± 1% | Increase in block for the mutant compared with wild type (GluN3B Ser701 to Ala): 15%
Compound: C[C@H](CCC(=O)O)[C@H]1CC[C@H]2[C@@H]3[C@H](O)C[C@@H]4C[C@H](O)CC[C@]4(C)[C@H]3CC[C@]12C [CDC, chenodeoxycholate]
Inhibition of glutamate-induced steady-state GluK2 current (kainate receptor GluK2): no inhibition

Compound: N[C@@H](CCC(=O)O)C(=O)O [Glu, glutamate]
max. Glu-induced current [normalized] (GluN1/GluN2D receptors; 10 µM Gly): 1.00 ± 0.17 (7) | max. Glu-induced current [normalized] (GluN1/GluN2D receptors; 10 µM Gly + 180 µM Tauro-CDC): 0.25 ± 0.06 (7)

Compound: NCC(=O)O [Gly, glycine]
glycine-induced currents (GluN3B Ser701 to Ala; Ser701 to Ala mutant, n = 29): 106 ± 12 nA | Activation of mutant receptor by agonist (GluN3B Tyr505 to Ala): could not be activated | glycine-induced currents (GluN1/GluN3B receptors; wild type, n = 30): 835 ± 85 nA

Compound: N[C@@H](CCS(=O)(=O)O)C(=O)O [L-HCA, L-homocysteic acid]
EC50 (NMDAR): 13 µM | Activation of GluN3B by agonist (GluN1/GluN3B receptors; concentrations of up to 1 mM, n = 4): could not be activated

Compound: O=C(O)c1cccnc1C(=O)O [QN, quinolinic acid]
Effect on uninjected oocytes (uninjected oocytes): no effect | EC50 (NMDAR): 7200 µM

Increase in block for the mutant compared with wild type (GluN3B Ser701 to Ala): 15% | max. block by Tauro-CDC (GluN1/GluN2D receptors; 10 µM Gly, 0.51 µM Glu): 100 ± 4 (11) % | max. block by Tauro-CDC (GluN1/GluN2D receptors; 10 µM Gly, 150 µM Glu): 87 ± 3 (13) % | Block of L-HCA-induced GluN2D currents (GluN1/GluN2D receptors; 100 µM tauro-CDC, L-HCA 13 µM, 10 µM glycine co-agonist, n = 12): 30 ± 2% | Inhibition of QN-induced GluN2D currents (GluN1/GluN2D receptors; 100 µM tauro-CDC, QN 1 mM, 10 µM glycine co-agonist, n = 7): 29 ± 2% | Reduction of QN-induced GluN2D currents (GluN1/GluN2D receptors; 100 µM tauro-CDC, QN 7.2 mM, 10 µM glycine co-agonist, n = 7): 26 ± 2% | Effect in the absence of NMDAR agonists (partial agonist action) (GluN1/GluN2D receptors; 100 µM tauro-CDC, n = 4): no effects | max. block by Tauro-CDC (GluN1/GluN2D receptors; […] Gly, 150 µM Glu): 98 ± 3 (8) % | IC50 (GluN1/GluN2D receptors; 10 µM Gly, 0.51 µM Glu): 137 ± 8 µM | IC50 (GluN1/GluN2D receptors; 10 µM Gly, 150 µM Glu (saturating agonist concentration)): 179 ± 11 µM | IC50 (GluN1/GluN2D receptors; […] Gly, 150 µM Glu): 153 ± 8 µM | maximum block by tauro-CDC (GluN1/GluN3B receptors; 5 μM glycine): 92 ± 3% | maximum block by tauro-CDC (GluN1/GluN3B receptors; 10 μM glycine): 95 ± 3% | Effect in the absence of NMDAR agonists (partial agonist action) (GluN1/GluN3B receptors; 100 µM tauro-CDC, n = 4): no effects | IC50 (GluN1/GluN3B receptors; in the presence of 5 μM glycine): 44 ± 7 µM | IC50 (GluN1/GluN3B receptors; in the presence of 10 μM glycine): 83 ± 8 µM | Reduction of QN-induced GluN3B currents (GluN1/GluN3B receptors; tauro-CDC 100 µM, QN 7.2 mM, n = 5): about 68 ± 4%
Compound: C[C@H](CCC(=O)NCCS(=O)(=O)O)[C@H]1CC[C@H]2[C@@H]3[C@H](O)C[C@@H]4C[C@H](O)CC[C@]4(C)[C@H]3CC[C@]12C [Tauro-CDC]
Effect on I/V relationship and reversal potential of agonist-induced currents (GluN1/GluN2D receptors; 100 µM tauro-CDC, n = 10–11): did neither change the shape of I/V relationships nor did it shift the reversal potentials | Effect on I/V relationship and reversal potential of agonist-induced currents (GluN1/GluN3B receptors; 100 µM tauro-CDC, n = 10–11): did neither change the shape of I/V relationships nor did it shift the reversal potentials
